Results as given in BigSolDB 2.1.

NNC(=O)c1ccccc1O
solubility (mole fraction)
Conditions | 283.15 K | 288.15 K | 293.15 K | 298.15 K | 303.15 K | 308.15 K | 313.15 K | 318.15 K | 323.15 K
in ethanol | 0.0095 | 0.0115 | 0.0132 | 0.0161 | 0.0189 | 0.0224 | 0.0278 | 0.0316 | 0.0379
in isopropanol | 0.00719 | 0.00841 | 0.0102 | 0.0124 | 0.015 | 0.0181 | 0.0219 | 0.0261 | 0.0316
in methanol | 0.0122 | 0.015 | 0.017 | 0.0198 | 0.0243 | 0.0278 | 0.0326 | 0.0382 | 0.0462
in n-butanol | 0.00861 | 0.00985 | 0.0115 | 0.013 | 0.0148 | 0.0165 | 0.0188 | 0.0216 | 0.025
in n-propanol | 0.00748 | 0.0097 | 0.0112 | 0.0138 | 0.016 | 0.0189 | 0.024 | 0.0283 | 0.0334
in water | 0.0122 | 0.0146 | 0.0182 | 0.0223 | 0.028 | 0.0355 | 0.0435 | 0.0541 | 0.0665

NNC(=O)c1ccccc1
solubility (mole fraction)
Conditions | 283.15 K | 288.15 K | 293.15 K | 298.15 K | 303.15 K | 308.15 K | 313.15 K | 318.15 K | 323.15 K
in ethanol | 0.0137 | 0.0169 | 0.0203 | 0.0283 | 0.0376 | 0.0481 | 0.0605 | 0.0805 | 0.101
in isopropanol | 0.0112 | 0.0135 | 0.0173 | 0.0231 | 0.0299 | 0.0384 | 0.0489 | 0.0623 | 0.0761
in methanol | 0.0363 | 0.0425 | 0.0515 | 0.0605 | 0.0727 | 0.0843 | 0.103 | 0.118 | 0.137
in n-butanol | 0.0087 | 0.0107 | 0.0132 | 0.0185 | 0.0244 | 0.0321 | 0.041 | 0.0519 | 0.0665
in n-propanol | 0.0129 | 0.0155 | 0.019 | 0.026 | 0.0319 | 0.0421 | 0.0536 | 0.068 | 0.0834
in water | 0.00505 | 0.00662 | 0.00868 | 0.0116 | 0.0154 | 0.0203 | 0.0267 | 0.0348 | 0.0453
